Earlier results in article PMC9127185, “A Pyridazinone Compound for Effectively Treating Non-alcoholic Steatohepatitis by Targeting THRβ” (Frontiers in Chemistry, 2022).

Parameters: method as in Harrison et al., 2019
Conditions: ref Harrison et al., 2019; cited from earlier work

SMILES: CC(C)c1cc(Oc2c(Cl)cc(-n3nc(C#N)c(=O)[nH]c3=O)cc2Cl)n[nH]c1=O [resmetirom, 2-[3,5-Dichloro-4-(5-Isopropyl-6-Oxo-1,6-Dihydropyridazin-3-Yloxy)phenyl]-3,5-Dioxo-2,3,4,5-Tetrahydro[1,2,4]triazine-6-Carbonitrile]
- Distribution: liver-specific distribution
- Effect on low density lipoprotein and triglyceride: reduced both low density lipoprotein and triglyceride effectively
